Each structure is given as a SMILES string.

This experiment deals with T1, wt human LRRK2 (Homo sapiens, UniProt Q5S007).
T1 construct: wt human LRRK2, catalytic site, catalytic site (ThermoFisher/USA); purchased ThermoFisher
T1 sequence (Q5S007 970-2527 limits assumed): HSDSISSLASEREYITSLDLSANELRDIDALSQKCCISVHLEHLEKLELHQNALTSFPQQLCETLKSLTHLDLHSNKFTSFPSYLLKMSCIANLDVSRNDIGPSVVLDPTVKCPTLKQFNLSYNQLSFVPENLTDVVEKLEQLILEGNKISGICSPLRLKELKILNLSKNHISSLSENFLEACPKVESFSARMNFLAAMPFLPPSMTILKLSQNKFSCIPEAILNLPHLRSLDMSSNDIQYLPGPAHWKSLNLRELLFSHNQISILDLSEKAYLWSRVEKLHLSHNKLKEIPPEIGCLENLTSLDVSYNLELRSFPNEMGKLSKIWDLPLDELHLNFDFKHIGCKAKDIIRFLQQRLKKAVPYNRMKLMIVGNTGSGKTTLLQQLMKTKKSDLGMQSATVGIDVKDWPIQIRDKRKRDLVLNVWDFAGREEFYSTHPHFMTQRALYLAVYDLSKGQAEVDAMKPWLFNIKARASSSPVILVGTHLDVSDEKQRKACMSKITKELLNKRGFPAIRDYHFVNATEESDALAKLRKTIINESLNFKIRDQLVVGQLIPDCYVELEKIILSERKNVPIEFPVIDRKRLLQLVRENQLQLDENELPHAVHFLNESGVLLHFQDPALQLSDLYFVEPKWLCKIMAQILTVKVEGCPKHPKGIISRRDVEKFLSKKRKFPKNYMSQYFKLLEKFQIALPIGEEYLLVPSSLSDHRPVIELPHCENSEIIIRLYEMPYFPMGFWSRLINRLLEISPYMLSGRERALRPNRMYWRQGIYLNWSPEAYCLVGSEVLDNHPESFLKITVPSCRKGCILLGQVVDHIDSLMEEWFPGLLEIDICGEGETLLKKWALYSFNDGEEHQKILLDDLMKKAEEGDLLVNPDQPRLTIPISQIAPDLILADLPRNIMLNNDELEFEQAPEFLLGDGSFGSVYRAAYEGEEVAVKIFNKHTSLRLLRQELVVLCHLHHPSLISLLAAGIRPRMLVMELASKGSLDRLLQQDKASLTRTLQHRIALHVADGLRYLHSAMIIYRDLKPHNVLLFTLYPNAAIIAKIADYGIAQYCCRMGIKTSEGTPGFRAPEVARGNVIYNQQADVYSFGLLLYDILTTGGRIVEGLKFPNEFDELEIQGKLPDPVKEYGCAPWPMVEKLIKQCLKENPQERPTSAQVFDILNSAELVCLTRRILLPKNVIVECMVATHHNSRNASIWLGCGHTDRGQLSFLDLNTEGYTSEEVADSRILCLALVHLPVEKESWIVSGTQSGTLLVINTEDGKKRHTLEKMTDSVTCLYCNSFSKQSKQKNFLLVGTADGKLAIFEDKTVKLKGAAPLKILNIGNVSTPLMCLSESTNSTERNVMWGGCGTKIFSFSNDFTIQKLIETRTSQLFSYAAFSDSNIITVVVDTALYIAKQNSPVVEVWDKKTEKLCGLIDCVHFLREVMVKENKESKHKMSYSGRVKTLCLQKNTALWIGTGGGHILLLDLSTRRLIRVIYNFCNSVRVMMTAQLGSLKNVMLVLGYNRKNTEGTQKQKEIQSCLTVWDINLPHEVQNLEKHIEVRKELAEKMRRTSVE
The experiment can be described thus: TR-FRET LanthaScreen Tb Kinase Activity Assay, inhibition of LRRK2 kinase. The format is biochemical. Conditions: 2 nM wt human LRRK2, 400 nM fluorescein-ERM (LRRKtide) peptide, 38 µM ATP, 15 min pre-incubation, 120 min at room temperature. How it is done:
In Table 2, activity is provided as the following: “+++”=IC50 less than 50 nM; “++”=IC50 between 50 nM and 200 nM; “+”=IC50> or =200 nM.
The compounds listed in Table 2 were tested for their inhibitory effect on LRRK2 kinase according to the following procedures.
The protocol for basic TR-FRET LanthaScreen Tb Kinase Activity Assay inhibitor studies were as follows. LanthaScreen Kinase Activity Assays (ThermoFisher/USA) to evaluate inhibitors were performed by addition of 100 nl of test compound in corresponding DMSO dilutions/5 μl of kinase/fluorescein-ERM(LRRKtide) peptide mixture, Compound & kinase were pre-incubated for 15 minutes, then 5 μl of ATP into 384 well small volume plates. After incubation for 120 minutes at room temperature, the detection reagents containing Tb-anti-pLRRKtide antibody were added to monitor phosphorylation level of peptide. Then, after 60 min minutes incubation at room temperature plates were read in Envision. Data analysis of emission ratios was according to LanthaScreen Tb Kinase Activity Assay protocol.
Kinase and assay components were adjusted to final concentrations according to the kit protocol. For LRRK2: 2 nM wt human LRRK2, catalytic site, catalytic site (ThermoFisher/USA), 400 nM peptide, 38 µM ATP in 1× Kinase Buffer A.
Basic protocol for TR-FRET LanthaScreen Tb Kinase Activity Assay inhibitor studies involved two steps:
Enzymatic step: Addition of […] of test compound in corresponding DMSO dilutions, 5 μL of kinase/substrate mixture, 5 μL of ATP into 384 well small volume plates. Incubation for 120 minutes at room temperature.
Detection step: Addition of 10 μL EDTA & antibody, read plate after 60 minutes. Data analysis of emission ratios according to KinEASE assay protocol.
Kinase and assay components were adjusted to final concentrations according to the kit protocol.
In general terms: TR-FRET usually uses a lanthanide donor and a delayed reading to cut background.
Turning to `CNC(=O)c1ccc2c(c1)-n1ncc(Cl)c1N=C(c1c(F)cccc1F)N2` [3-chloro-5-(2,6-difluorophenyl)-N-methyl-6H-pyrazolo[1,5-a][1,3,5]benzotriazepine-9-carboxamide], the IC50 (commonly the concentration that gives 50% inhibition) was below 50 nM.

Regarding `Fc1cccc(F)c1C1=Nc2c(Cl)cnn2-c2cc(N3CCNC4(CC4)C3)ccc2N1` [3-chloro-9-(4,7-diazaspiro[2.5]octan-7-yl)-5-(2,6-difluorophenyl)-6H-pyrazolo[1,5-a][1,3,5]benzotriazepine], the IC50 was below 50 nM.

The compound `O=C(NCC1CC1)c1ccc2c(c1)-n1ncc(Cl)c1N=C(c1c(F)cccc1F)N2` [3-chloro-N-(cyclopropylmethyl)-5-(2,6-difluorophenyl)-6H-pyrazolo[1,5-a][1,3,5]benzotriazepine-9-carboxamide] yielded an IC50 below 50 nM.

With `O=C(NC1CCC1)c1ccc2c(c1)-n1ncc(Cl)c1N=C(c1c(F)cccc1F)N2` [3-chloro-N-cyclobutyl-5-(2,6-difluorophenyl)-6H-pyrazolo[1,5-a][1,3,5]benzotriazepine-9-carboxamide], the IC50 was below 50 nM.

As to `O=C(NC1CCCC1)c1ccc2c(c1)-n1ncc(Cl)c1N=C(c1c(F)cccc1F)N2` [3-chloro-N-cyclopentyl-5-(2,6-difluorophenyl)-6H-pyrazolo[1,5-a][1,3,5]benzotriazepine-9-carboxamide], the IC50 is below 50 nM.

`Fc1cccc(F)c1C1=Nc2c(Cl)cnn2-c2cc(N3CCOCC3)ncc2N1` [4-(3-Chloro-5-(2,6-difluorophenyl)-6H-pyrazolo[1,5-a]pyrido[3,4-f][1,3,5]triazepin-9-yl)morpholine]: the IC50 is below 50 nM.

`Fc1cccc(F)c1C1=Nc2c(Br)cnn2-c2cc(N3CCOCC3)ncc2N1` [4-(3-bromo-5-(2,6-difluorophenyl)-6H-pyrazolo[1,5-a]pyrido[3,4-f][1,3,5]triazepin-9-yl)morpholine] had an IC50 below 50 nM.

For the compound `Fc1cc(F)c(C2=Nc3c(Cl)cnn3-c3cc(N4CCOCC4)ncc3N2)c(F)c1` [4-(3-chloro-5-(2,4,6-trifluorophenyl)-6H-pyrazolo[1,5-a]pyrido[3,4-f][1,3,5]triazepin-9-yl)morpholine], the IC50 was below 50 nM.

The compound `Fc1cccc(Cl)c1C1=Nc2c(Cl)cnn2-c2cc(N3CCOCC3)ncc2N1` [4-(3-chloro-5-(2-chloro-6-fluorophenyl)-6H-pyrazolo[1,5-a]pyrido[3,4-f][1,3,5]triazepin-9-yl)morpholine] gave an IC50 below 50 nM.

In turn, `Fc1cccc(F)c1C1=Nc2c(F)cnn2-c2cc(N3CCOCC3)ncc2N1` [4-(5-(2,6-difluorophenyl)-3-fluoro-6H-pyrazolo[1,5-a]pyrido[3,4-f][1,3,5]triazepin-9-yl)morpholine] yielded an IC50 below 50 nM.

As to `Cc1cnn2c1N=C(c1c(F)cccc1F)Nc1cnc(N3CCOCC3)cc1-2` [4-(5-(2,6-difluorophenyl)-3-methyl-6H-pyrazolo[1,5-a]pyrido[3,4-f][1,3,5]triazepin-9-yl)morpholine], the IC50 is below 50 nM.

The compound `Fc1cccc(F)c1C1=Nc2ccnn2-c2cc(N3CCOCC3)ncc2N1` [4-(5-(2,6-difluorophenyl)-6H-pyrazolo[1,5-a]pyrido[3,4-f][1,3,5]triazepin-9-yl)morpholine] gave an IC50 below 50 nM.

`Fc1cccc(F)c1C1=Nc2c(Cl)cnn2-c2cc(N3CCCOCC3)ccc2N1` [4-[3-chloro-5-(2,6-difluorophenyl)-6H-pyrazolo[1,5-a][1,3,5]benzotriazepin-9-yl]-1,4-oxazepane]: the IC50 is below 50 nM.

Consider `CC1CN(c2ccc3c(c2)-n2ncc(Cl)c2N=C(c2c(F)cccc2F)N3)CC(C)O1` (stereo not shown) [4-[3-chloro-5-(2,6-difluorophenyl)-6H-pyrazolo[1,5-a][1,3,5]benzotriazepin-9-yl]-2,6-dimethyl-morpholine], for which the IC50 is below 50 nM.

Regarding `Fc1cccc(F)c1C1=Nc2c(Cl)cnn2-c2cc(N3CCOCC3)ccc2N1` [4-[3-chloro-5-(2,6-difluorophenyl)-6H-pyrazolo[1,5-a][1,3,5]benzotriazepin-9-yl]morpholine], the IC50 is below 50 nM.

`Fc1cccc(Cl)c1C1=Nc2c(Cl)cnn2-c2cc(N3CCOCC3)ccc2N1` [4-[3-chloro-5-(2-chloro-6-fluoro-phenyl)-6H-pyrazolo[1,5-a][1,3,5]benzotriazepin-9-yl]morpholine] showed a concentration for half-maximal inhibition (IC50) below 50 nM.

The compound `Fc1cccc(N2CCOCC2)c1C1=Nc2c(Cl)cnn2-c2cc(N3CCOCC3)ccc2N1` [4-[3-chloro-5-(2-fluoro-6-morpholino-phenyl)-6H-pyrazolo[1,5-a][1,3,5]benzotriazepin-9-yl]morpholine] came in with a half-inhibitory concentration (IC50) above 200 nM.

`Fc1cccc(F)c1C1=Nc2ccnn2-c2cc(N3CCOCC3)ccc2N1` [4-[5-(2,6-difluorophenyl)-6H-pyrazolo[1,5-a][1,3,5]benzotriazepin-9-yl]morpholine] returned a half-inhibitory concentration (IC50) below 50 nM.

With `N#Cc1cnn2c1N=C(c1c(F)cccc1F)Nc1cnc(N3CCOCC3)cc1-2` [5-(2,6-difluorophenyl)-9-morpholino-6H-pyrazolo[1,5-a]pyrido[3,4-f][1,3,5]triazepine-3-carbonitrile], the IC50 is below 50 nM.

Consider `O=C(NCCF)c1cnc2c(c1)-n1ncc(Cl)c1N=C(c1c(F)cccc1F)N2` [5-chloro-8-(2,6-difluorophenyl)-N-(2-fluoroethyl)-2,3,7,9,11-pentazatricyclo[8.4.0.02,6]tetradeca-1(10),3,5,7,11,13-hexaene-13-carboxamide], for which the concentration for half-maximal inhibition (IC50) is below 50 nM.

As to `Fc1cccc(F)c1C1=Nc2c(Cl)cnn2-c2cc(N3CC4(COC4)C3)ccc2N1` [6-[3-chloro-5-(2,6-difluorophenyl)-6H-pyrazolo[1,5-a][1,3,5]benzotriazepin-9-yl]-2-oxa-6-azaspiro[3.3]heptane], the half-inhibitory concentration (IC50) is below 50 nM.

Consider `Fc1cccc(F)c1C1=Nc2c(Cl)cnn2-c2cc(N3C4COCC3C4)ccc2N1` [6-[3-chloro-5-(2,6-difluorophenyl)-6H-pyrazolo[1,5-a][1,3,5]benzotriazepin-9-yl]-3-oxa-6-azabicyclo[3.1.1]heptane], for which the IC50 is below 50 nM.

`Fc1cccc(F)c1C1=Nc2c(Cl)cnn2-c2cc(N3CCC4(CC3)COC4)ccc2N1` [7-[3-chloro-5-(2,6-difluorophenyl)-6H-pyrazolo[1,5-a][1,3,5]benzotriazepin-9-yl]-2-oxa-7-azaspiro[3.5]nonane]: the 50% inhibitory concentration (IC50) is below 50 nM.

As for `Fc1cccc(F)c1C1=Nc2c(Cl)cnn2-c2cc(N3C4CCC3COC4)ccc2N1` [8-[3-chloro-5-(2,6-difluorophenyl)-6H-pyrazolo [1,5-a][1,3, 5]benzotriazepin-9-yl]-3-oxa-8-azabicyclo [3.2.1]octane], the IC50 was below 50 nM.

On to `Fc1cccc(F)c1C1=Nc2c(Cl)cnn2-c2cc(Br)ccc2N1` [9-bromo-3-chloro-5-(2,6-difluorophenyl)-6H-pyrazolo[1,5-a][1,3,5]benzotriazepine], for which the IC50 is below 50 nM.

In the case of `Fc1cccc(F)c1C1=Nc2c(Cl)cnn2-c2cc(N3C[C@H]4C[C@@H]3CO4)ccc2N1` [(1R,4R)-5-[3-chloro-5-(2,6-difluorophenyl)-6H-pyrazolo[1,5-a][1,3,5]benzotriazepin-9-yl]-2-oxa-5-azabicyclo[2.2.1]heptane], the half-maximal inhibitory concentration (IC50) was below 50 nM.

Take `Fc1cccc(F)c1C1=Nc2c(Cl)cnn2-c2cc(N3C[C@H]4CC[C@@H]3CO4)ccc2N1` [(1R,4R)-5-[3-chloro-5-(2,6-difluorophenyl)-6H-pyrazolo[1,5-a][1,3,5]benzotriazepin-9-yl]-2-oxa-5-azabicyclo[2.2.2]octane]: the IC50 was below 50 nM.

The compound `Fc1cccc(F)c1C1=Nc2c(Cl)cnn2-c2cc(N3C[C@H]4C[C@@H]3CO4)ncc2N1` [(1R,4R)-5-[5-chloro-8-(2,6-difluorophenyl)-2,3,7,9,12-pentazatricyclo[8.4.0.02,6]tetradeca-1(10),3,5,7,11,13-hexaen-13-yl]-2-oxa-5-azabicyclo[2.2.1]heptane] yielded an IC50 below 50 nM.

`Fc1cccc(F)c1C1=Nc2c(Cl)cnn2-c2cc(N3C[C@H]4CC[C@@H](C3)O4)ccc2N1` [(1R,5S)-3-[3-chloro-5-(2,6-difluorophenyl)-6H-pyrazolo[1,5-a][1,3,5]benzotriazepin-9-yl]-8-oxa-3-azabicyclo[3.2.1]octane] showed an IC50 below 50 nM.

Turning to `Fc1cccc(F)c1C1=Nc2c(Cl)cnn2-c2cc(N3C[C@@H]4C[C@H]3CO4)ccc2N1` [(1S,4S)-5-[3-chloro-5-(2,6-difluorophenyl)-6H-pyrazolo[1,5-a][1,3,5]benzotriazepin-9-yl]-2-oxa-5-azabicyclo[2.2.1]heptane], the IC50 is below 50 nM.

`C[C@@H]1CN(c2ccc3c(c2)-n2ncc(Cl)c2N=C(c2c(F)cccc2F)N3)C[C@@H](C)O1` [(2R,6R)-4-(3-chloro-5-(2,6-difluorophenyl)-6H-benzo[f]pyrazolo[1,5-a][1,3,5]triazepin-9-yl)-2,6-dimethylmorpholine] yielded an IC50 below 50 nM.

Values taken from US20260347361A1, “LRRK2 INHIBITORS AND USES THEREOF” (NEURON23, INC, priority 2022, published 2026).
